Results on three molecules are retold here after patent US8486606B2, “Acrylate derivative, haloester derivative, polymer compound and photoresist composition” (Kuraray Co., Ltd., priority 2008, dated 2013).

This series can be described thus: Evaluation of solubility at 25° C. in organic solvent. The series is classed as physicochemical. The protocol:
A solubility of 2-methacryloyloxyacetoxy-4,5-oxathiatricyclo[4.2.1.0^3,7]nonane-5,5-dioxide obtained in Example 2 in tetrahydrofuran was measured according to the following operation.
1 g of a sample to be used for the evaluation of solubility was prepared. 1 g of an organic solvent described in Table 1 and the foregoing sample were mixed at 25° C., and the mixture was stirred at 25° C. for 10 minutes as it was. An insoluble matter was filtered out from the obtained mixed solution, and the organic solvent was distilled off from the filtrate. Subsequently, the residue was dried under reduced pressure for 5 hours, thereby obtaining the sample in the saturated solution. A mass of the subject sample was measured, and its solubility was calculated according to the following expression. Solubility(% by mass)=100×(Mass of the sample in the saturated solution)/(Mass of the saturated solution)
The experiment and evaluation of solubility were carried out in the same manner as in Example 7, except that in Example 7, the sample and the organic solvent were changed to those shown in Table 1 or Table 2.

[1] abbreviates: organic solvent: Methyl ethyl ketone.
Where [2] appears, read: organic solvent: Tetrahydrofuran.

Each structure is given as a SMILES string.

Regarding `C=C(C)C(=O)OCC(=O)OC1C2CC3C1OS(=O)(=O)C3C2` (stereo not drawn) [Example 2, 2-methacryloyloxyacetoxy-4,5-oxathiatricyclo[4.2.1.0^3,7]nonane-5,5-dioxide], the Solubility by setting is: under setting [1], 45.5 % by mass; under setting [2], 48.1 % by mass.

In the case of `C=C(C)C(=O)OCC(=O)OC1C2CC3C(=O)OC1C3O2` (stereo not drawn) [reference compound], the Solubility came to 4.2 % by mass under setting [1] and 7.8 % by mass under setting [2].

Take `C=C(C)C(=O)OCC(=O)OC1C2CC3C(O2)C1OS3(=O)=O` (stereo not drawn) [Example 4, 5-methacryloyloxyacetoxy-3,7-dioxa-2-thiatricyclo[4.2.1.0^4,8]nonane-2,2-dioxide]: the Solubility runs as follows: under setting [1], 30.8 % by mass; under setting [2], 31.9 % by mass.
